Reference: US12570666B2, “Furoindazole derivatives” (Bayer Aktiengesellschaft, priority 2019, dated 2026)
pIC50: −log10 of the molar value.

Each compound was assayed against T1, human GPR84 receptor (Homo sapiens, UniProt Q9NQS5) (assay: cAMP HTRF assay for identification of cellular GPR84 antagonists). Details: CHO-K1 cells stably expressing human GPR84; Forskolin + agonist 6-OAU (EC80); average or median values.
T1 construct: frozen aliquots prepared by acCELLerate; host or cells: CHO-K1
Assay type: cell-based
From the text: cAMP HTRF® Assay for Identification of Cellular GPR84 Antagonists
By using a Homogenous Time-Resolved Fluorescence (HTRF®) based assay (#62AM5PEJ, Cisbio, Condolet, France) the inhibition of the Gi-coupled GPR84 receptor can be detected. CHO-K1 cells stably expressing human GPR84 receptor (purchased from DiscoveRx, now Eurofins) were used and treated with Forskolin (F6886, Sigma, Germany) to stimulate membrane adenylyl cyclases and thereby unspecific cAMP formation. Activation of the Gi-coupled GPR84 by a natural or small molecule agonist (e.g. 6-n-octyl aminouracile, inhouse) results in inhibition of cellular cAMP formation which can be released again by antagonists to this receptor. Detection and quantification of cellular cAMP levels in this HTRF assay is achieved by interaction between a fluorescent cAMP tracer (cAMP-d2) and an Eu-cryptate labelled anti-cAMP antibody. Following excitation at 337 nm this pairing allows for the generation of a fluorescence resonance energy transfer (FRET) between the partners and results in FRET induced emissions at 665 nm and 620 nm, the latter representing background signal by Eu-cryptate labelled anti-cAMP antibody. Maximal signal is obtained in the absence of any cellular cAMP (no competition for the binding of the tracer to the antibody). Given the combination of the Gi coupling properties of GPR84 and the competitive nature of the detection system agonist treatment should result in an increase in the HTRF signal due to lowered cAMP levels. Any signal decrease in the presence of Forskolin, agonist and compound is indicative of antagonist mediated abrogation of GPR84 signalling.
For the assay, frozen aliquots of CHO-K1 cells expressing hGPR84 (prepared by acCELLerate, Hamburg, Germany) were thawed and a cell suspension (1.67E+06 cells/mL) in assay media (Ham's F12 Nutrient Mix, Thermo Fisher Scientific, Waltham, USA; 5% fetal calf serum, Biomol, Hamburg, Germany) containing cAMP-d2 (dilution 1:20, supplied with the kit #62AM5PEJ, Cisbio, Condolet, France) was prepared. After recovery of cells for 20 minutes at 37° C., 3 μL/well cell suspension including cAMP-d2 were added to a pre-dispensed assay plate (Greiner Bio-One, Kremsmuenster, Austria) containing 50 nl/well test compound in 100% DMSO or 100% DMSO as control. This was followed by a 30 minutes incubation step at room temperature. […] The reaction was stopped by addition of 3 μL/well lysis buffer containing cAMP Eu-Cryptate antibody (dilution 1:20) (both supplied with the kit #62AM5PEJ, Cisbio, Condolet, France). To enable complete lysis, plates were incubated for 60 minutes at room temperature before measurement in an HTRF reader, e.g. a PHERAstar (BMG Labtech, Ortenberg, Germany).
From the fluorescence emissions at 665 nm (FRET) and at 620 nm (background signal of Eu-cryptate) the ratio (emission at 665 nm divided by emission at 620 nm×10000) was calculated and the data were normalized (reaction without test compound, only 100% DMSO=0% inhibition; all other assay components except agonist=100% inhibition). For dose response testing on the same microtiter plate, compounds were tested at 11 different concentrations in the range of 20 μM to 0.07 nM (20 μM, 5.7 μM, 1.6 μM, 0.47 μM, 0.13 μM, 38 nM, 11 nM, 3.1 nM, 0.89 nM, 0.25 and 0.07 nM; dilution series prepared before the assay at the level of the 100-fold conc. stock solutions by serial 1:3.5 dilutions in 100% DMSO) in duplicate values for each concentration. IC50 values were calculated by 4-parameter fitting using a commercial software package (Genedata Screener, Basel, Switzerland).
Examples were tested in selected biological assays one or more times. […]

T1 sequence (Q9NQS5 whole entry): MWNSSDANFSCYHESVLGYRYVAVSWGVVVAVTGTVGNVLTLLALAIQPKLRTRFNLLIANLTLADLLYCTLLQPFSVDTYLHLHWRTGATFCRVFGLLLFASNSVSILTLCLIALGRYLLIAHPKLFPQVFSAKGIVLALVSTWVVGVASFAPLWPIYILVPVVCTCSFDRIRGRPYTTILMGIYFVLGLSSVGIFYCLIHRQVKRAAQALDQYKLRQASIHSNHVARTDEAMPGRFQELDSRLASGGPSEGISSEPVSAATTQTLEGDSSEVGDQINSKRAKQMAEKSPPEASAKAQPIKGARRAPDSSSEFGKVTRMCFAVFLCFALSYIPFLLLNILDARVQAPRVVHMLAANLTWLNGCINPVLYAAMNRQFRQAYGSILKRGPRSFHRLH

SMILES | pIC50
Cc1c(C(=O)NCc2nocc2C(=O)O)oc2c1-c1nn(Cc3ccccn3)cc1CC2 [Example 31, 3-[({[8-methyl-2-(pyridin-2-ylmethyl)-4,5-dihydro-2H-furo[2,3-g]indazol-7-yl]carbonyl}amino)methyl]-1,2-oxazole-4-carboxylic acid] | < 4.70
Cc1cccc(Cn2cc3c(n2)-c2c(oc(C(=O)NCC4COc5ncccc5O4)c2C)CC3)n1 (racemic) [Example 70, N-[(2R/S)-2,3-dihydro[1,4]dioxino[2,3-b]pyridin-2-ylmethyl]-8-methyl-2-[(6-methylpyridin-2-yl)methyl]-4,5-dihydro-2H-furo[2,3-g]indazole-7-carboxamide] | 7.11
Cc1c(C(=O)NC[C@@H]2COCCO2)oc2c1-c1nn(CCN3CCNCC3)cc1CC2 [Example 163, N-[(2R)-1,4-dioxan-2-ylmethyl]-8-methyl-2-[2-(piperazin-1-yl)ethyl]-4,5-dihydro-2H-furo[2,3-g]indazole-7-carboxamide] | < 4.70
Cc1c(C(=O)NC[C@@H]2CCCO2)oc2c1-c1nn(C[C@H]3CCCO3)cc1CC2 [Example 105, 8-methyl-2-{[(2R)-tetrahydrofuran-2-yl]methyl]-N-[(2S)-tetrahydrofuran-2-ylmethyl]-4,5-dihydro-2H-furo[2,3-g]indazole-7-carboxamide] | 7.14
O=C(NC[C@H]1COCCO1)c1oc2c(c1C(F)(F)F)-c1nn(C[C@H]3COCCO3)cc1CC2 [Example 300, N,2-bis{[(2S)-1,4-dioxan-2-yl]methyl}-8-(trifluoromethyl)-4,5-dihydro-2H-furo[2,3-g]indazole-7-carboxamide] | 6.49
Cc1c(C(=O)NC[C@@H]2CCCO2)oc2c1-c1nn(C[C@H]3COCCO3)cc1C(C(F)(F)F)C2 (mixture of isomers) [Example 266, (4±)-2-{[(2S)-1,4-dioxan-2-yl]methyl}-8-methyl-N-{[(2S)-oxolan-2-yl]methyl}-4-(trifluoromethyl)-4,5-dihydro-2H-furo[2,3-g]indazole-7-carboxamide] | 6.22
Cc1c(C(=O)NCC2(F)COC2)oc2c1-c1nn(Cc3ccccn3)cc1CC2 [Example 37, N-[(3-fluorooxetan-3-yl)methyl]-8-methyl-2-(pyridin-2-ylmethyl)-4,5-dihydro-2H-furo[2,3-g]indazole-7-carboxamide] | 5.02
Cc1ccc(Cn2cc3c(n2)-c2c(oc(C(=O)NC[C@@H]4CCCO4)c2C(F)(F)F)CC3)cn1 [Example 192] | 8.22
CC(=O)N1CC(Cn2cc3c(n2)-c2c(oc(C(=O)NC[C@@H]4CCCO4)c2C)CC3)C1 [Example 164, 2-[(1-acetylazetidin-3-yl)methyl]-8-methyl-N-[(2S)-tetrahydrofuran-2-ylmethyl]-4,5-dihydro-2H-furo[2,3-g]indazole-7-carboxamide] | 6.01
C[C@@H]1Cc2oc(C(=O)NC[C@@H]3COCCO3)c(C(F)(F)F)c2-c2nn(CC3CCN(C(=O)C4CC4)CC3)cc21 (single isomer, unassigned) [Example 291, (4R or 4S)-2-{[1-(cyclopropanecarbonyl)piperidin-4-yl]methyl}-N-{[(2R)-1,4-dioxan-2-yl]methyl}-4-methyl-8-(trifluoromethyl)-4,5-dihydro-2H-furo[2,3-g]indazole-7-carboxamide] | 8.30
Cc1ccc(Cn2cc3c(n2)-c2c(oc(C(=O)NC[C@@H]4COCCO4)c2C)CC3)cn1 [Example 76, N-[(2R)-1,4-dioxan-2-ylmethyl]-8-methyl-2-[(6-methylpyridin-3-yl)methyl]-4,5-dihydro-2H-furo[2,3-g]indazole-7-carboxamide] | 7.19
O=C(NC[C@@H]1CCCO1)c1cc2c(o1)CCc1cn(Cc3ccccn3)nc1-2 [Example 1, 2-(pyridin-2-ylmethyl)-N-[(2S)-tetrahydrofuran-2-ylmethyl]-4,5-dihydro-2H-furo[2,3-g]indazole-7-carboxamide] | 6.00
Cc1c(C(=O)NC[C@@H]2CCCO2)oc2c1-c1nn(Cc3cccnc3)cc1CC2 [Example 44, 8-methyl-2-(pyridin-3-ylmethyl)-N-[(2S)-tetrahydrofuran-2-ylmethyl]-4,5-dihydro-2H-furo[2,3-g]indazole-7-carboxamide] | 7.74
Cn1ccc(CNC(=O)c2oc3c(c2C2CC2)-c2nn(Cc4ccccn4)cc2CC3)n1 [Example 121, 8-cyclopropyl-N-[(1-methyl-1H-pyrazol-3-yl)methyl]-2-(pyridin-2-ylmethyl)-4,5-dihydro-2H-furo[2,3-g]indazole-7-carboxamide] | 7.17
Cc1c(C(=O)NC[C@@H]2CCCO2)oc2c1-c1nn(C[C@H]3COCCO3)cc1C1(CC1)C2 [Example 125, 2′-[(2S)-1,4-dioxan-2-ylmethyl]-8′-methyl-N-[(2S)-tetrahydrofuran-2-ylmethyl]-2′,5′-dihydrospiro[cyclopropane-1,4′-furo[2,3-g]indazole]-7′-carboxamide] | 7.29
Cc1c(C(=O)NCCN2CCN(C)CC2)oc2c1-c1nn(CC3COc4ncccc4O3)cc1CC2 (racemic) [Example 54, 2-[(2R/S)-2,3-dihydro[1,4]dioxino[2,3-b]pyridin-2-ylmethyl]-8-methyl-N-[2-(4-methylpiperazin-1-yl)ethyl]-4,5-dihydro-2H-furo[2,3-g]indazole-7-carboxamide] | 6.26
O=C(NCc1cnccn1)c1oc2c(c1C(F)(F)F)-c1nn(C[C@H]3COCCO3)cc1CC2 [Example 228, 2-[(2S)-1,4-Dioxan-2-ylmethyl]-N-(pyrazin-2-ylmethyl)-8-(trifluormethyl)-4,5-dihydro-2H-furo[2,3-g]indazol-7-carboxamide] | 7.42
O=C(NC[C@@H]1CCCO1)c1oc2c(c1C(F)(F)F)-c1nn(Cc3ccccn3)cc1C1(CC1)C2 [Example 218, N-{[(2S)-oxolan-2-yl]methyl}-2′-[(pyridin-2-yl)methyl]-8′-(trifluoromethyl)-2′,5′-dihydrospiro[cyclopropane-1,4′-furo[2,3-g]indazole]-7′-carboxamide] | 8.05
Cc1c(C(=O)NC[C@@H]2COCCO2)oc2c1-c1nn(C[C@H]3CCO3)cc1CC2 [Example 98, N-[(2R)-1,4-dioxan-2-ylmethyl]-8-methyl-2-[(2R)-oxetan-2-ylmethyl]-4,5-dihydro-2H-furo[2,3-g]indazole-7-carboxamide] | 6.33
Cc1ccc(Cn2cc3c(n2)-c2c(oc(C(=O)NC[C@@H]4CCCO4)c2C(F)(F)F)CC32CC2)nc1 [Example 214, 2′-[(5-methylpyridin-2-yl)methyl]-N-{[(2S)-oxolan-2-yl]methyl}-8′-(trifluoromethyl)-2′,5′-dihydrospiro[cyclopropane-1,4′-furo[2,3-g]indazole]-7′-carboxamide] | 8.30
C[C@@H]1Cc2oc(C(=O)NCc3ncco3)c(C(F)(F)F)c2-c2nn(C[C@H]3COCCO3)cc21 (single isomer, unassigned) [Example 256, (4R or 4S)-2-{[(2S)-1,4-dioxan-2-yl]methyl}-4-methyl-N-[(1,3-oxazol-2-yl)methyl]-8-(trifluoromethyl)-4,5-dihydro-2H-furo[2,3-g]indazole-7-carboxamide] | 7.85
CCOc1cnc(Cn2cc3c(n2)-c2c(oc(C(=O)NC[C@@H]4CCCO4)c2C)CC3)c(Cl)c1 [Example 59, 2-[(3-chloro-5-ethoxypyridin-2-yl)methyl]-8-methyl-N-[(2S)-tetrahydrofuran-2-ylmethyl]-4,5-dihydro-2H-furo[2,3-g]indazole-7-carboxamide] | 7.15
